One assay addresses T1, hCRHR2 (Homo sapiens, UniProt Q13324).
T1 sequence (Q13324 1-411): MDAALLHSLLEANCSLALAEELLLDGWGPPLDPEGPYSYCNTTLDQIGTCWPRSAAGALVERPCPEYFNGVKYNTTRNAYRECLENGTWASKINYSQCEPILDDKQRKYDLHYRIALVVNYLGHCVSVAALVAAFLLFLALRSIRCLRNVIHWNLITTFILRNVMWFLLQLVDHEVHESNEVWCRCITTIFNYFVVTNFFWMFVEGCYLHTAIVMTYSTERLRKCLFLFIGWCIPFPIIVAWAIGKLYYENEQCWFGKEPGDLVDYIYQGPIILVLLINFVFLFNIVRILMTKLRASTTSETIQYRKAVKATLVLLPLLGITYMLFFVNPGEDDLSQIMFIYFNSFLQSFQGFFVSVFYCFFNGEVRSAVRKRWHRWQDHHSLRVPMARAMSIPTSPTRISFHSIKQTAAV
The assay can be described thus: HTRF cAMP assay, determination of hCRHR2 potency (peptide libraries 5 conc., purified peptides 11 conc.). It is filed as cell-based. The gist of the method: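 Cells: CHO-K1/hCRHR2 stable clone, suspension, freshly thawed. Readout: competitive TR-FRET, anti-cAMP cryptate vs cAMP-d2. Analysis: sigmoid variable-slope nonlinear regression → EC50.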

The target of the next assay is T2, hCRHR1 (Homo sapiens, UniProt P34998).
T2 sequence (P34998 24-415): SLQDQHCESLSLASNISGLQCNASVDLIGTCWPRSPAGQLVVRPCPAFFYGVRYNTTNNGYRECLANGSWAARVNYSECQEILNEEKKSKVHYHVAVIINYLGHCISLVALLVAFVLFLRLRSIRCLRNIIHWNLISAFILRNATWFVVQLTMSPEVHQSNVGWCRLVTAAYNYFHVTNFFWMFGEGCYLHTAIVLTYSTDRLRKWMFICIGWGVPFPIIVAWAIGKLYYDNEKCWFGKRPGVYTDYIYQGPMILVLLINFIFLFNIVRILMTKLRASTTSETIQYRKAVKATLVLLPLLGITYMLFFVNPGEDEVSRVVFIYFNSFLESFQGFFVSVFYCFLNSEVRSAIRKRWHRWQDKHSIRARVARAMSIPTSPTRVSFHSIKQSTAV
The assay can be described thus: HTRF cAMP assay, determination of hCRHR1 potency (peptide libraries 5 conc., purified peptides 11 conc.). It is filed as cell-based. The gist of the method: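 Cellular cAMP was read by time-resolved FRET between d2-labelled cAMP and cryptate anti-cAMP antibody. The cells were freshly thawed suspension CHO-K1 cells stably expressing human CRHR1.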
A general note: In TR-FRET formats the signal depends on donor and acceptor labels being close together.

[1] abbreviates: library peptides, matched molecular pairs L vs Nle in position X^38, read-out: Potency hCRHR2 pEC50 (converted).
Where [2] appears, read: library peptides, matched molecular pairs L vs Nle in position X^38, read-out: Potency hCRHR1 pEC50 (converted).

Data on 5 molecules can be found in EP4810052A2, “HCRHR2 SELECTIVE POLYPEPTIDES” (Gubra A/S, priority 2023, dated 2026).

Like-named read-outs stand apart in the source and are kept apart here. Starred links: 1 amine or outer side, 2 acyl side, 3 side chain; linkers in the order of their positions; H or OH if unused. Non-standard residues stand in square brackets, D forms with d. Residues, ends and D or L forms follow the SMILES beside them. Groups on a side chain read outwards from the residue. *: point of attachment. C20 diacid = O=C(O)CCCCCCCCCCCCCCCCCCC(=O)*; γGlu = O=C(O)[C@H](CCC(=O)[*:2])N[*:1]; NMeI = CC[C@H](C)[C@H](NC)C(=O)O; Nle = CCCC[C@H](N)C(=O)O; AEEA = NCCOCCOCC(=O)O; Aib = CC(C)(N)C(=O)O

Turning to `CCCC[C@H](NC(=O)[C@@H](NC(=O)[C@H](CCC(=O)O)NC(=O)[C@H](C)NC(=O)[C@H](CC(N)=O)NC(=O)[C@@H](NC(=O)[C@H](CCCCNC(=O)COCCOCCNC(=O)COCCOCCNC(=O)CC[C@H](NC(=O)CC[C@H](NC(=O)CCCCCCCCCCCCCCCCCCC(=O)O)C(=O)O)C(=O)O)NC(=O)[C@H](C)NC(=O)[C@H](CCC(N)=O)NC(=O)[C@H](CCC(=O)O)NC(=O)[C@H](CCCNC(=N)N)NC(=O)[C@H](C)NC(=O)[C@@H](NC(=O)[C@H](CCCNC(=N)N)NC(=O)[C@H](C)NC(=O)[C@H](CCCNC(=N)N)NC(=O)[C@H](C)NC(=O)[C@H](CCC(N)=O)NC(=O)[C@H](CCC(=O)O)NC(=O)[C@H](CC(C)C)NC(=O)[C@H](CC(C)C)NC(=O)[C@@H](NC(=O)[C@H](CCC(N)=O)NC(=O)[C@H](CC(C)C)NC(=O)[C@H](CC(C)C)NC(=O)CNC(=O)[C@@H](NC(=O)[C@@H]1CCCN1C(=O)[C@@H](NC(=O)[C@H](CC(=O)O)NC(=O)[C@H](CC(C)C)NC(=O)[C@H](CO)NC(=O)[C@H](CC(C)C)NC(=O)[C@@H](NC(=O)[C@@H](N)[C@@H](C)CC)C(C)C)C(C)C)[C@@H](C)CC)[C@@H](C)CC)C(C)C)[C@@H](C)O)[C@@H](C)CC)C(=O)N[C@@H](C)C(=O)N[C@@H](CCC(=O)O)C(=O)N[C@H](C(N)=O)C(C)C` [compound 91] (H-IVLSLDVPIGLLQILLEQARARVAREQAK([AEEA-AEEA-γGlu-γGlu-C20 diacid])TNAEI[Nle]AEV-NH2), the EC50 was 0.398 nM at hCRHR2 (setting [1]) and 1.58 nM on hCRHR1 (setting [2]).
The matching figures for `CC[C@H](C)[C@H](N)C(=O)N[C@H](C(=O)N[C@@H](CC(C)C)C(=O)N[C@@H](CO)C(=O)N[C@@H](CC(C)C)C(=O)N[C@@H](CC(=O)O)C(=O)N[C@H](C(=O)N1CCC[C@H]1C(=O)N[C@H](C(=O)NCC(=O)N[C@@H](CC(C)C)C(=O)N[C@@H](CC(C)C)C(=O)N[C@@H](CCC(N)=O)C(=O)N[C@H](C(=O)N[C@@H](CC(C)C)C(=O)N[C@@H](CC(C)C)C(=O)N[C@@H](CCC(=O)O)C(=O)N[C@@H](CCC(N)=O)C(=O)N[C@@H](C)C(=O)N[C@@H](CCCNC(=N)N)C(=O)N[C@@H](C)C(=O)N[C@@H](CCCNC(=N)N)C(=O)N[C@@H](C)C(=O)N[C@@H](C)C(=O)N[C@@H](CCCNC(=N)N)C(=O)N[C@@H](CCC(=O)O)C(=O)N[C@@H](CCC(=O)O)C(=O)N[C@@H](C)C(=O)N[C@@H](CCCCNC(=O)COCCOCCNC(=O)COCCOCCNC(=O)CC[C@H](NC(=O)CC[C@H](NC(=O)CCCCCCCCCCCCCCCCCCC(=O)O)C(=O)O)C(=O)O)C(=O)N[C@H](C(=O)N[C@@H](CC(N)=O)C(=O)N[C@@H](C)C(=O)N[C@@H](CCC(=O)O)C(=O)N[C@H](C(=O)N[C@@H](CC(C)C)C(=O)N[C@@H](C)C(=O)N[C@@H](CCC(=O)O)C(=O)N[C@H](C(N)=O)[C@@H](C)CC)[C@@H](C)CC)[C@@H](C)O)[C@@H](C)CC)[C@@H](C)CC)C(C)C)C(C)C` [compound 74] (H-IVLSLDVPIGLLQILLEQARARAAREEAK([AEEA-AEEA-γGlu-γGlu-C20 diacid])TNAEILAEI-NH2): 2 nM and 158000 nM.
For the molecule `CCCC[C@H](NC(=O)[C@@H](NC(=O)[C@H](CCC(=O)O)NC(=O)C(C)(C)NC(=O)[C@H](CC(N)=O)NC(=O)[C@@H](NC(=O)[C@H](CCCCNC(=O)COCCOCCNC(=O)COCCOCCNC(=O)CC[C@H](NC(=O)CC[C@H](NC(=O)CCCCCCCCCCCCCCCCCCC(=O)O)C(=O)O)C(=O)O)NC(=O)[C@H](C)NC(=O)[C@H](CCC(N)=O)NC(=O)[C@H](CCC(=O)O)NC(=O)[C@H](CCCNC(=N)N)NC(=O)[C@H](C)NC(=O)[C@H](C)NC(=O)[C@H](CCCNC(=N)N)NC(=O)[C@H](C)NC(=O)[C@H](CCCNC(=N)N)NC(=O)[C@H](C)NC(=O)[C@H](CCC(N)=O)NC(=O)[C@@H](NC(=O)[C@H](CC(C)C)NC(=O)[C@H](CC(C)C)NC(=O)[C@@H](NC(=O)[C@H](CCC(N)=O)NC(=O)[C@H](CC(C)C)NC(=O)[C@H](CC(C)C)NC(=O)CNC(=O)[C@@H](NC(=O)[C@@H]1CCCN1C(=O)[C@@H](NC(=O)[C@H](CC(=O)O)NC(=O)[C@H](CC(C)C)NC(=O)[C@H](CO)NC(=O)[C@H](CC(C)C)NC(=O)[C@@H](NC(=O)[C@@H](NC)[C@@H](C)CC)C(C)C)C(C)C)[C@@H](C)CC)[C@@H](C)CC)[C@@H](C)CC)[C@@H](C)O)[C@@H](C)CC)C(=O)N[C@@H](C)C(=O)N[C@@H](CCC(=O)O)C(=O)N[C@H](C(N)=O)C(C)C` [compound 209] (H-[NMeI]VLSLDVPIGLLQILLIQARARAAREQAK([AEEA-AEEA-γGlu-γGlu-C20 diacid])TN[Aib]EI[Nle]AEV-NH2), the EC50 at hCRHR2 (Table 4, library peptides having X^38 = Nle, read-out: hCRHR2 pEC50 (converted)) was 0.02 nM; at hCRHR1 (Table 4, library peptides having X^38 = Nle, read-out: hCRHR1 pEC50 (converted)), 3160 nM.
As to `CCCC[C@H](NC(=O)[C@@H](NC(=O)[C@H](CCC(=O)O)NC(=O)[C@H](C)NC(=O)[C@H](CC(N)=O)NC(=O)[C@@H](NC(=O)[C@H](CCCCNC(=O)COCCOCCNC(=O)COCCOCCNC(=O)CC[C@H](NC(=O)CC[C@H](NC(=O)CCCCCCCCCCCCCCCCCCC(=O)O)C(=O)O)C(=O)O)NC(=O)[C@H](C)NC(=O)[C@H](CCC(N)=O)NC(=O)[C@H](CCC(=O)O)NC(=O)[C@H](CCCNC(=N)N)NC(=O)[C@H](C)NC(=O)[C@H](CCC(N)=O)NC(=O)[C@H](CCCNC(=N)N)NC(=O)[C@H](C)NC(=O)[C@H](CCCNC(=N)N)NC(=O)[C@H](C)NC(=O)[C@H](CCC(N)=O)NC(=O)[C@H](CCC(=O)O)NC(=O)[C@H](CC(C)C)NC(=O)[C@H](CC(C)C)NC(=O)[C@@H](NC(=O)[C@H](CCC(N)=O)NC(=O)[C@H](CC(C)C)NC(=O)[C@H](CC(C)C)NC(=O)CNC(=O)[C@@H](NC(=O)[C@@H]1CCCN1C(=O)[C@@H](NC(=O)[C@H](CC(=O)O)NC(=O)[C@H](CC(C)C)NC(=O)[C@H](CO)NC(=O)[C@H](CC(C)C)NC(=O)[C@@H](NC(=O)[C@@H](N)[C@@H](C)CC)C(C)C)C(C)C)[C@@H](C)CC)[C@@H](C)CC)[C@@H](C)O)[C@@H](C)CC)C(=O)N[C@@H](C)C(=O)N[C@@H](CCC(=O)O)C(=O)N[C@H](C(N)=O)[C@@H](C)CC` [SEQ ID NO: 30] (H-IVLSLDVPIGLLQILLEQARARQAREQAK([AEEA-AEEA-γGlu-γGlu-C20 diacid])TNAEI[Nle]AEI-NH2), the EC50 on hCRHR2 (Table 3, matched molecular pairs X^38 L vs Nle, peptide library of Example 4, read-out: hCRHR2 pEC50 (converted)) is 0.126 nM; at hCRHR1 (Table 3, matched molecular pairs X^38 L vs Nle, peptide library of Example 4, read-out: hCRHR1 pEC50 (converted)), 1580 nM.
Consider `CCCC[C@H](NC(=O)[C@@H](NC(=O)[C@H](CCC(=O)O)NC(=O)[C@H](C)NC(=O)[C@H](CC(N)=O)NC(=O)[C@@H](NC(=O)[C@H](CCCCNC(=O)COCCOCCNC(=O)COCCOCCNC(=O)CC[C@H](NC(=O)CC[C@H](NC(=O)CCCCCCCCCCCCCCCCCCC(=O)O)C(=O)O)C(=O)O)NC(=O)[C@H](C)NC(=O)[C@H](CCC(=O)O)NC(=O)[C@H](CCC(=O)O)NC(=O)[C@H](CCCNC(=N)N)NC(=O)[C@H](C)NC(=O)[C@H](C)NC(=O)[C@H](CCCNC(=N)N)NC(=O)[C@H](C)NC(=O)[C@H](CCCNC(=N)N)NC(=O)[C@H](C)NC(=O)[C@H](CCC(N)=O)NC(=O)[C@H](CCC(=O)O)NC(=O)[C@H](CC(C)C)NC(=O)[C@H](CC(C)C)NC(=O)[C@@H](NC(=O)[C@H](CCC(N)=O)NC(=O)[C@H](CC(C)C)NC(=O)[C@H](CC(C)C)NC(=O)CNC(=O)[C@@H](NC(=O)[C@@H]1CCCN1C(=O)[C@@H](NC(=O)[C@H](CC(=O)O)NC(=O)[C@H](CC(C)C)NC(=O)[C@H](CO)NC(=O)[C@H](CC(C)C)NC(=O)[C@@H](NC(=O)[C@@H](N)[C@@H](C)CC)C(C)C)C(C)C)[C@@H](C)CC)[C@@H](C)CC)[C@@H](C)O)[C@@H](C)CC)C(=O)N[C@@H](C)C(=O)N[C@@H](CCC(=O)O)C(=O)N[C@H](C(N)=O)[C@@H](C)CC` [compound 75] (H-IVLSLDVPIGLLQILLEQARARAAREEAK([AEEA-AEEA-γGlu-γGlu-C20 diacid])TNAEI[Nle]AEI-NH2), for which the EC50 on hCRHR2 (setting [1]) is 0.794 nM; at hCRHR1 (setting [2]), 158000 nM.
